The source made the active and inactive calls. The calls are words filed in the database; no cut-off is given here.
Experiments:
[1] = system: H4; assay: Antiproliferative activity against human H4 cells assessed as inhibition of cell growth measured after 72 hrs by CCK-8 assay; type: functional, cell-based; conditions: H4, 72 h
[2] = system: U-251; assay: Antiproliferative activity against human U-251MG cells assessed as inhibition of cell growth measured after 72 hrs by CCK-8 assay; type: functional, cell-based; conditions: U-251, 72 h
[3] = system: Hs 683; assay: Antiproliferative activity against human Hs 683 cells assessed as inhibition of cell growth measured after 72 hrs by CCK-8 assay; type: functional, cell-based; conditions: Hs 683, 72 h
[4] = system: LN-229; assay: Antiproliferative activity against human LN-229 cells assessed as inhibition of cell growth measured after 72 hrs by CCK-8 assay; type: functional, cell-based; conditions: LN-229, 72 h
[5] = target: BUB3-interacting and GLEBS motif-containing protein ZNF207 (Homo sapiens, UniProt O43670); assay: Binding affinity to human ZNF207 assessed as dissociation constant by SPR analysis
[6] = system: LN-229; assay: Antitumor activity against human LN-229 cells xenografted in BALB/c nude mouse assessed as reduction in proportion of Ki-67 positive cells at 150 mg/kg, ip administered twice a week and measured after 49 days by immunohistochemistry analysis; type: functional, organism-based; conditions: time 49.0 day
[7] = system: LN-229; assay: Antitumor activity against human LN-229 cells xenografted in BALB/c nude mouse assessed as tumor growth inhibition at 150 mg/kg, ip administered twice a week and measured every 2 days for 49 days relative to control; type: functional; conditions: LN-229, 1176 h, time 49 day, read-out: TGI
[8] = system: LN-229-Luc; assay: Antitumor activity against human Ln-229-Luc cells xenografted in BALB/c nude mouse assessed as increase in overall survival time at 150 mg/kg, ip administered twice a week and measured after 3 to 31 days; type: functional, organism-based; conditions: time 3-31 day

Sequence of BUB3-interacting and GLEBS motif-containing protein ZNF207 (O43670 whole entry): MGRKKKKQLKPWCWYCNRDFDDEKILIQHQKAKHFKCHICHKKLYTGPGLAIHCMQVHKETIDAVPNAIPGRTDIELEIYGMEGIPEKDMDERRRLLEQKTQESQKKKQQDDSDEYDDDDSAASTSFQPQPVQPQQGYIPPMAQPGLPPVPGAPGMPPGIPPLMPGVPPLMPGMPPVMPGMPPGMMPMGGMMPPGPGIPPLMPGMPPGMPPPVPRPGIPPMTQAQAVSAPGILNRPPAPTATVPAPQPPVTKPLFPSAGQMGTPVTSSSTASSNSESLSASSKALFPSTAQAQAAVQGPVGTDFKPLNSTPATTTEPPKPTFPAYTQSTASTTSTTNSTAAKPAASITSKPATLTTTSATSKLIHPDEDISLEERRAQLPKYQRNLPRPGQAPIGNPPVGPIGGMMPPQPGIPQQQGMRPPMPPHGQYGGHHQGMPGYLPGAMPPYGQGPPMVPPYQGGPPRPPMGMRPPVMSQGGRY

IC50 [2] [µM] | Kd [5] [µM] | SMILES | IC50 [1] [µM] | IC50 [3] [µM] | IC50 [4] [µM] | Activity [6] | inhibition in vivo at 150 mg/kg [7] [%] | Activity [8]
> 80 |  | N#CC1(C(=O)NCc2cccc(Cl)c2Cl)CC2c3ccccc3C1c1ccccc12 (racemic) | > 80 | > 80 | > 80 |  |  | 
> 80 |  | Cc1ccccc1NC(=O)C1(C#N)CC2c3ccccc3C1c1ccccc12 (racemic) | > 80 | > 80 | > 80 |  |  | 
40.5 |  | N#CC1(C(=O)NCCc2cccc(F)c2)CC2c3ccccc3C1c1ccccc12 (racemic) | 50 | 46.6 | 33 |  |  | 
> 80 |  | N#CC1(C(=O)Nc2ccc(F)cc2)CC2c3ccccc3C1c1ccccc12 (racemic) | > 80 | > 80 | > 80 |  |  | 
54.3 |  | N#CC1(C(=O)NCCc2cccc(Cl)c2)CC2c3ccccc3C1c1ccccc12 (racemic) | 18.8 | > 80 | 36.6 |  |  | 
> 80 |  | N#CC1(C(=O)Nc2ccc(N)cc2)CC2c3ccccc3C1c1ccccc12 (racemic) | 61.7 | > 80 | > 80 |  |  | 
> 80 |  | N#CC1(C(=O)NCCc2ccc3c(c2)OCO3)CC2c3ccccc3C1c1ccccc12 (racemic) | > 80 | 44 | 36.8 |  |  | 
38.1 |  | N#CC1(C(=O)NCCc2ccccc2F)CC2c3ccccc3C1c1ccccc12 (racemic) | 26 | > 80 | 49 |  |  | 
> 80 |  | N#CC1(C(=O)NCc2ccccc2)CC2c3ccccc3C1c1ccccc12 (racemic) | > 80 | > 80 | > 80 |  |  | 
48.3 |  | N#CC1(C(=O)NCCc2ccc([N+](=O)[O-])cc2)CC2c3ccccc3C1c1ccccc12 (racemic) | 36.9 | > 80 | 23.8 |  |  | 
35.9 |  | N#CC1(C(=O)NCCC2CCN(Cc3ccccc3)CC2)CC2c3ccccc3C1c1ccccc12 (racemic) | 26.6 | 19.1 | 11.6 |  |  | 
13.5 | 2.4 | N#CC1(C(=O)Nc2ccc([N+](=O)[O-])cc2)CC2c3ccccc3C1c1ccccc12 (racemic) | 25.3 | 26.4 | 19.4 |  |  | 
> 80 |  | Cc1ccc(CCNC(=O)C2(C#N)CC3c4ccccc4C2c2ccccc23)cc1 (racemic) | > 80 | 39.9 | 60.8 |  |  | 
52.3 |  | N#CC1(C(=O)NCCc2ccc(F)cc2)CC2c3ccccc3C1c1ccccc12 (racemic) | 35.2 | 43.6 | 32.5 |  |  | 
> 80 |  | COc1ccc(NC(=O)C2(C#N)CC3c4ccccc4C2c2ccccc23)cc1 (racemic) | > 80 | > 80 | > 80 |  |  | 

Continued, molecule first:

SMILES | IC50 [2] [µM] | Kd [5] [µM] | IC50 [1] [µM] | IC50 [3] [µM] | IC50 [4] [µM] | Activity [6] | inhibition in vivo at 150 mg/kg [7] [%] | Activity [8]
COc1cc(NC(=O)C2(C#N)CC3c4ccccc4C2c2ccccc23)cc(OC)c1 (racemic) | > 80 |  | > 80 | > 80 | > 80 |  |  | 
N#CC1(C(=O)NCCSc2ccccc2)CC2(Br)c3ccccc3C1c1ccccc12 (racemic) | 16.8 |  | 16.9 | 11.6 | 14.4 |  |  | 
N#CC1(C(=O)NCC2CCN(Cc3ccccc3)CC2)CC2(Br)c3ccccc3C1c1ccccc12 (racemic) | 15.7 |  | 3.32 | 14.9 | 5.94 |  |  | 
N#CC1(C(=O)NCC2CCN(Cc3ccc(F)cc3)CC2)CC2(Br)c3ccccc3C1c1ccccc12 (racemic) | > 80 |  | > 80 | > 80 | > 80 |  |  | 
N#CC1(C(=O)NCCCc2ccc(Br)cc2)CC2(Br)c3ccccc3C1c1ccccc12 (racemic) | 37.7 |  | 53.1 | 47.3 | 24.6 |  |  | 
N#CC1(C(=O)NCCc2ccc(Br)cc2)CC2(Br)c3ccccc3C1c1ccccc12 (racemic) | 30 |  | 10.3 | 8.43 | 9.73 |  |  | 
O=C(NCCC1CCN(Cc2ccccc2)CC1)C1(Cl)CC2(Br)c3ccccc3C1c1ccccc12 (racemic) | 24.1 |  | 19.1 | 38.7 | 12.4 |  |  | 
N#CC1(C(=O)NCCc2ccc(F)cc2)CC2(Br)c3ccccc3C1(Br)c1ccccc12 (racemic) | > 80 |  | 54 | > 80 | > 80 |  |  | 
N#CC1(C(=O)NCCc2ccc(F)cc2)CC2(CCl)c3ccccc3C1c1ccccc12 (racemic) | 34.9 |  | 32.6 | 52.8 | 60.2 |  |  | 
COc1ccc(NC(=O)C2(C#N)CC3c4ccccc4C2c2ccccc23)cc1C (racemic) | > 80 |  | > 80 | > 80 | > 80 |  |  | 
N#CC1(C(=O)NCCc2ccc(F)cc2)CC2(CO)c3ccccc3C1c1ccccc12 (racemic) | 39.8 |  | 30.7 | 21.8 | 15 |  |  | 
N#CC1(C(=O)NCCc2ccc(F)cc2)CC2(Br)c3ccccc3C1c1ccccc12 (racemic) | 21.4 |  | 15.3 | 19.8 | 14.6 |  |  | 
N#CC1(C(=O)NCCC2CCN(Cc3ccc(F)cc3)CC2)CC2(Br)c3ccccc3C1c1ccccc12 (racemic) | 18.1 |  | 18 | 21.9 | 18.7 |  |  | 
N#CC1(C(=O)NCCc2ccccc2F)CC2(Br)c3ccccc3C1c1ccccc12 (racemic) | > 80 |  | > 80 | > 80 | > 80 |  |  | 
N#CC1(C(=O)NCCS(=O)(=O)Nc2ccc(F)cc2)CC2(Br)c3ccccc3C1c1ccccc12 (racemic) | 21.2 |  | 21.9 | 17.8 | 12.7 |  |  | 
N#CC1(C(=O)NCCC(=O)Nc2ccc(F)cc2)CC2(Br)c3ccccc3C1c1ccccc12 (racemic) | 49.8 |  | 15.8 | 12.6 | 14.6 |  |  | 
COc1cc(NC(=O)C2(C#N)CC3c4ccccc4C2c2ccccc23)cc(OC)c1OC (racemic) | > 80 |  | > 80 | > 80 | > 80 |  |  | 
N#CC1(C(=O)NCCS(=O)(=O)Nc2ccccc2)CC2(Br)c3ccccc3C1c1ccccc12 (racemic) | 23.2 |  | 22.7 | 15.2 | 26.6 |  |  | 
O=C(NCCc1ccc(F)cc1)C1(Cl)CC2(Br)c3ccccc3C1c1ccccc12 (racemic) | > 80 |  | > 80 | > 80 | > 80 |  |  | 
N#CC1(C(=O)NC2CCN(Cc3ccccc3)CC2)CC2(Br)c3ccccc3C1c1ccccc12 (racemic) | 25.1 |  | 9.84 | 11.3 | 7.36 |  |  | 
CC12CC(C#N)(C(=O)NCCc3ccc(F)cc3)C(c3ccccc31)c1ccccc12 (racemic) | 18.7 |  | 22.3 | 24.6 | 28.9 |  |  | 
N#CC1(C(=O)Nc2ccc3c(c2)OCO3)CC2c3ccccc3C1c1ccccc12 (racemic) | 72.6 |  | 20 | > 80 | 45.5 |  |  | 
N#CC1(C(=O)NCCS(=O)(=O)c2ccc(Cl)cc2)CC2(Br)c3ccccc3C1c1ccccc12 (racemic) | 23.5 |  | 15.3 | 10.4 | 9.14 |  |  | 
N#CC1(C(=O)NCCc2ccc(Cl)cc2)CC2(Br)c3ccccc3C1c1ccccc12 (racemic) | 24 |  | 25 | 23.1 | 7.85 |  |  | 
N#CC1(C(=O)NCCCc2ccccc2)CC2(Br)c3ccccc3C1c1ccccc12 (racemic) | 45.8 |  | 49 | > 80 | 19.8 |  |  | 
CC(=O)C12CC(C#N)(C(=O)NCCc3ccc(F)cc3)C(c3ccccc31)c1ccccc12 (racemic) | 18.8 |  | 24.7 | 20.7 | 29.5 |  |  | 
Cn1nnc2c(C(N)=O)ncn2c1=O [TEMOZOLOMIDE] | 43.5 |  | 47.9 | 47.2 | 54.1 | Active | 69.6 | Active
